This data set is described as follows: Degradation of Compound A by hydrolysis. The following applies: water. Type of data set: physicochemical. The text has this:
Also provided herein are anhydrous pharmaceutical compositions and dosage forms including an active ingredient, since water can facilitate the degradation of some compounds. For example, the addition of water (e.g., 5 percent) is widely accepted in the pharmaceutical arts as a means of simulating shelf-life, i.e., long-term storage in order to determine characteristics such as shelf-life or the stability of formulations over time. See, e.g., Jens T. Carstensen, Drug Stability: Principles & Practice, 2d. Ed., Marcel Dekker, NY, N.Y., 1995, pp. 379-80. In effect, water and heat accelerate decomposition. Thus, the effect of water on a formulation can be of great significance since moisture and/or humidity are commonly encountered during manufacture, handling, packaging, storage, shipment, and use of formulations.

Consider `Cc1nc2cccc(N)c2c(=O)n1C1CCC(=O)NC1=O` (stereo not shown) [Compound A, 3-(5-amino-2-methyl-4-oxo-4H-quinazolin-3-yl)-piperidine-2,6-dione], for which the degradation by hydrolysis result was “easily degraded by hydrolysis”.

The values are drawn from US20150196562A1, “FORMULATIONS OF 3-(5-AMINO-2-METHYL-4-OXO-4H-QUINAZOLIN-3-YL)-PIPERIDINE-2,6-DIONE” (Celgene Corporation, priority 2014, published 2015).
